In patent publication US9902702B2, “Spirocycloheptanes as inhibitors of rock” (BRISTOL-MYERS SQUIBB COMPANY, priority 2014, dated 2018) one finds IC50 data, which are given here for 28 molecules.

Structures can show the parent of a compound that is named as a salt.

The target in this experiment is ROCK2 (Homo sapiens, UniProt O75116). Nature of the experiment: ROCK assay: phosphorylation of FITC peptide substrate, LABCHIP 3000 mobility shift. The conditions noted are these: 5 μM ATP, 1.5 μM peptide substrate; read-out: ROCK2 Activity (ROCK IC50 range). The class given is biochemical. The method in brief:
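IC50 values come from curve-fitting percent kinase inhibition across a compound dilution series. The reaction is started with Rho kinase variant in HEPES pH 7.5 buffer with MgCl2, Brij-35 and DTT, with 5 μM ATP, 1.5 μM FITC-labelled peptide and under 2% DMSO. After EDTA quench, product and substrate are separated by microfluidic mobility shift.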

ROCK2, sequence (O75116 whole entry, species assumed): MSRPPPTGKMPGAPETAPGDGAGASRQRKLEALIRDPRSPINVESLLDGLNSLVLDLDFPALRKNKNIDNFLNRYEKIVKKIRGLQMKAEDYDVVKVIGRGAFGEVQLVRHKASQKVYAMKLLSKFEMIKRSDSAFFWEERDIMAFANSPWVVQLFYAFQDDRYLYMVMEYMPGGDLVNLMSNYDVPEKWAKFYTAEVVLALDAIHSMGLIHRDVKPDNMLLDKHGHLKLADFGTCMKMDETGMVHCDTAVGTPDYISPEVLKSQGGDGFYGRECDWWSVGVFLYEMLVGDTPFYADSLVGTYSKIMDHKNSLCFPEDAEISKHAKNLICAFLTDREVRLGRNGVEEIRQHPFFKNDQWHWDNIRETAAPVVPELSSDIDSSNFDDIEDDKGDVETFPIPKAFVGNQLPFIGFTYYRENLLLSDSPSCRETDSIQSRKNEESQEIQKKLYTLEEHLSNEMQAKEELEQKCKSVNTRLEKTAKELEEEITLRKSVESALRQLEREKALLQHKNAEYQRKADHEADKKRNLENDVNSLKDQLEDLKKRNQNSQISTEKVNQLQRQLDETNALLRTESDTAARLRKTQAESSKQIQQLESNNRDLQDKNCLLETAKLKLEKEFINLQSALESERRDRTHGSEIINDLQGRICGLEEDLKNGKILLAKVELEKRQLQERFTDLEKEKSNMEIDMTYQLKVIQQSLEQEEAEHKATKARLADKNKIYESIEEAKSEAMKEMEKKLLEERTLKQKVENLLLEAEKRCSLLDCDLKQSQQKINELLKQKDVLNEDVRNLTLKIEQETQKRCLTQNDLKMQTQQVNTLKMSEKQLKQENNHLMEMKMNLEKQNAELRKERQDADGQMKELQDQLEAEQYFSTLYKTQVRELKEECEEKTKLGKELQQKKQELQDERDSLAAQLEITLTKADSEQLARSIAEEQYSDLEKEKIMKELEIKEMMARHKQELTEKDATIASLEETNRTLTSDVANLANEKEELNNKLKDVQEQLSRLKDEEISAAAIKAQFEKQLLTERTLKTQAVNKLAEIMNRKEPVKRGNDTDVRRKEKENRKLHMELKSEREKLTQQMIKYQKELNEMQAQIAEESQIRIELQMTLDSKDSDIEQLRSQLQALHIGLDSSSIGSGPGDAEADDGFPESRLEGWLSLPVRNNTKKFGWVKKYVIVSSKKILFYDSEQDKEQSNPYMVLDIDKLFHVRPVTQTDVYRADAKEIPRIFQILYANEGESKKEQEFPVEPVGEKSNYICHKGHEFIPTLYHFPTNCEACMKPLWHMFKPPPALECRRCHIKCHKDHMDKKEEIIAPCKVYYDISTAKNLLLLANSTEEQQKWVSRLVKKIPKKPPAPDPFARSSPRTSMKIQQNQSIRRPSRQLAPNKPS

For the molecule `CC(C)n1cc(-c2ccc3c(c2)CN(C(=O)NC2CC4(C2)CC(c2n[nH]c(=O)c5ccccc25)C4)C3)c(C(F)(F)F)n1` [Example 249, 5-(1-isopropyl-3-(trifluoromethyl)-1H-pyrazol-4-yl)-N-((aR)-6-(4-oxo-3,4-dihydrophthalazin-1-yl)spiro[3.3]heptan-2-yl)isoindoline-2-carboxamide], the IC50 was 5.1 to 15 nM. On to `Cn1cc(-c2ccc3c(c2)CN(C(=O)NC2CC4(C2)CC(c2n[nH]c(=O)c5ccccc25)C4)C3)cn1` [Example 250, 5-(1-methyl-1H-pyrazol-4-yl)-N-((aR)-6-(4-oxo-3,4-dihydrophthalazin-1-yl)spiro[3.3]heptan-2-yl)isoindoline-2-carboxamide], for which the IC50 lay in the range of 5.1 to 15 nM. For `O=C(NC1CC2(C1)CC(c1n[nH]c(=O)c3ccccc13)C2)N1Cc2ccc(-c3cnn(C4CCOCC4)c3)cc2C1` [Example 251, N-((aR)-6-(4-oxo-3,4-dihydrophthalazin-1-yl)spiro[3.3]heptan-2-yl)-5-(1-(tetrahydro-2H-pyran-4-yl)-1H-pyrazol-4-yl)isoindoline-2-carboxamide] the value was 5.1 to 15 nM; for `CC(C)(C)n1cc(-c2ccc3c(c2)CN(C(=O)NC2CC4(C2)CC(c2n[nH]c(=O)c5ccccc25)C4)C3)cn1` [Example 252, 5-(1-(tert-butyl)-1H-pyrazol-4-yl)-N-((aR)-6-(4-oxo-3,4-dihydrophthalazin-1-yl)spiro[3.3]heptan-2-yl)isoindoline-2-carboxamide], 5.1 to 15 nM; for `[2H]C([2H])([2H])n1cc(-c2ccc3c(c2)CN(C(=O)NC2CC4(C2)CC(c2n[nH]c(=O)c5ccccc25)C4)C3)cn1` [Example 253, 5-(1-(^2H3)methyl-1H-pyrazol-4-yl)-N-((aR)-6-(4-oxo-3,4-dihydrophthalazin-1-yl)spiro[3.3]heptan-2-yl)isoindoline-2-carboxamide], 5.1 to 15 nM. Turning to `CC1(C)CN(C(=O)NC2CC3(C2)CC(c2n[nH]c(=O)c4ccccc24)C3)c2ccccc21` (stereo not shown) [Example 255], the IC50 was 5.1 to 15 nM.

For `O=C(NC1CC2(C1)CC(c1n[nH]c(=O)c3ccccc13)C2)N1CCc2cccnc21` [Example 256, N-((aR)-6-(4-oxo-3,4-dihydrophthalazin-1-yl)spiro[3.3]heptan-2-yl)-2,3-dihydro-1H-pyrrolo[2,3-b]pyridine-1-carboxamide], the IC50 was 15.1 to 100 nM. Then `O=C(NC1CC2(C1)CC(c1n[nH]c(=O)c3ccccc13)C2)N1Cc2cccnc2C1` (stereo not shown) [Example 257], with 15.1 to 100 nM. With `COc1ccc2c(c1)CCN2C(=O)NC1CC2(C1)CC(c1n[nH]c(=O)c3ccccc13)C2` [Example 258, 5-methoxy-N-((aR)-6-(4-oxo-3,4-dihydrophthalazin-1-yl)spiro[3.3]heptan-2-yl)indoline-1-carboxamide], the IC50 lay in the range of 5.1 to 15 nM. Then `O=C(NC1CC2(C1)CC(c1n[nH]c(=O)c3ccccc13)C2)N1CCc2ccc(C(F)(F)F)cc21` [Example 259, N-((aR)-6-(4-oxo-3,4-dihydrophthalazin-1-yl)spiro[3.3]heptan-2-yl)-6-(trifluoromethyl)indoline-1-carboxamide], with 5.1 to 15 nM; and `CN(C)S(=O)(=O)c1ccc2c(c1)CCN2C(=O)NC1CC2(C1)CC(c1n[nH]c(=O)c3ccccc13)C2` [Example 260, 5-(N,N-dimethylsulfamoyl)-N-((aR)-6-(4-oxo-3,4-dihydrophthalazin-1-yl)spiro[3.3]heptan-2-yl)indoline-1-carboxamide], with 5.1 to 15 nM; and `O=C(NC1CC2(C1)CC(c1n[nH]c(=O)c3ccccc13)C2)N1CC(CN2CCOCC2)c2ccccc21` [Example 261, 3-(morpholinomethyl)-N-((aR)-6-(4-oxo-3,4-dihydrophthalazin-1-yl)spiro[3.3]heptan-2-yl)indoline-1-carboxamide], with 15.1 to 100 nM. For `Cc1ccc(-c2ncc3c(n2)CN(C(=O)NC2CC4(C2)CC(c2n[nH]c(=O)c5ccccc25)C4)C3)cc1` [Example 262, N-((aR)-6-(4-oxo-3,4-dihydrophthalazin-1-yl)spiro[3.3]heptan-2-yl)-2-(p-tolyl)-5H-pyrrolo[3,4-d]pyrimidine-6(7H)-carboxamide] the value was 100 to 2100 nM. Then `COc1ccc2c(c1)CN(C(=O)NC1CC3(C1)CC(c1n[nH]c(=O)c4ccccc14)C3)C2` [Example 263, 5-methoxy-N-((aR)-6-(4-oxo-3,4-dihydrophthalazin-1-yl)spiro[3.3]heptan-2-yl)isoindoline-2-carboxamide], with 5.1 to 15 nM; and `O=C(NC1CC2(C1)CC(c1n[nH]c(=O)c3ccccc13)C2)N1Cc2ccncc2C1` [Example 264, N-((aR)-6-(4-oxo-3,4-dihydrophthalazin-1-yl)spiro[3.3]heptan-2-yl)-1H-pyrrolo[3,4-c]pyridine-2(3H)-carboxamide], with 15.1 to 100 nM; and `O=C(N[C@H]1CC2(C1)C[C@H](c1n[nH]c(=O)c3ccccc31)C2)N1CC2(CCNCC2)c2ccccc21` (stereo partly drawn) [Example 265, N-((aR)-6-(4-oxo-3,4-dihydrophthalazin-1-yl)spiro[3.3]heptan-2-yl)spiro[indoline-3,4′-piperidine]-1-carboxamide], with 100 to 2100 nM. Consider `[H][C@]1(c2n[nH]c(=O)c3ccccc32)C[C@]2(C[C@@H](N(C)C(=O)c3nn(C)c4ccccc34)C2)C1` (stereo partly drawn) [Example 266, N,1-dimethyl-N-((aR)-6-(4-oxo-3,4-dihydrophthalazin-1-yl)spiro[3.3]heptan-2-yl)-1H-indazole-3-carboxamide], for which the IC50 lay within 100 to 2100 nM. Then `[H][C@]1(c2n[nH]c(=O)c3ccccc32)C[C@]2(C[C@@H](N(CC)C(=O)c3nn(C)c4ccccc34)C2)C1` (stereo partly drawn) [Example 267, N-ethyl-1-methyl-N-((aR)-6-(4-oxo-3,4-dihydrophthalazin-1-yl)spiro[3.3]heptan-2-yl)-1H-indazole-3-carboxamide], with 100 to 2100 nM; and `[H][C@]1(c2n[nH]c(=O)c3ccccc32)C[C@]2(C[C@@H](NC(=O)c3cnn4cc(OCC(C)(C)OC(=O)CN)ccc34)C2)C1` (stereo partly drawn) [Example 268, 2-methyl-1-((3-(((aR)-6-(4-oxo-3,4-dihydrophthalazin-1-yl)spiro[3.3]heptan-2-yl)carbamoyl)pyrazolo[1,5-a]pyridin-6-yl)oxy)propan-2-yl2-aminoacetate, TFA], with 0.2 to 2 nM. For `[H][C@]1(c2n[nH]c(=O)c3ccccc32)C[C@]2(C[C@@H](NC(=O)c3cnn4cc(OCC(C)(C)OC(=O)[C@@H](N)C(C)C)ccc34)C2)C1` (stereo partly drawn) [Example 269, (S)-2-methyl-1-((3-(((aR)-6-(4-oxo-3,4-dihydrophthalazin-1-yl)spiro[3.3]heptan-2-yl)carbamoyl)pyrazolo[1,5-a]pyridin-6-yl)oxy)propan-2-yl2-amino-3-methylbutanoate, TFA] the value was 0.2 to 2 nM; for `[H][C@]1(c2n[nH]c(=O)c3ccccc32)C[C@]2(C[C@@H](NC(=O)c3cnn4cc(OCC(C)(C)OC(=O)[C@H](C)N)ccc34)C2)C1` (stereo partly drawn) [Example 270, (S)-2-methyl-1-((3-(((aR)-6-(4-oxo-3,4-dihydrophthalazin-1-yl)spiro[3.3]heptan-2-yl)carbamoyl)pyrazolo[1,5-a]pyridin-6-yl)oxy)propan-2-yl2-aminopropanoate, TFA], 0.2 to 2 nM; for `CC(C)(O)COc1ccc2c(C(=O)NC3CC4(C3)CC(c3c[nH]c(=O)c5ccccc35)C4)cnn2c1` (stereo not shown) [Example 271, 6-(2-hydroxy-2-methylpropoxy)-N-(6-(1-oxo-1,2-dihydroisoquinolin-4-yl)spiro[3.3]heptan-2-yl)pyrazolo[1,5-a]pyridine-3-carboxamide], 2.01 to 5 nM. For `CC(C)(C)OC(=O)N1CCc2c(C(=O)N[C@H]3CC4(C3)C[C@H](c3n[nH]c(=O)c5ccccc53)C4)csc2C1` (stereo partly drawn) [Example 272, tert-butyl 3-(((aR)-6-(4-oxo-3,4-dihydrophthalazin-1-yl)spiro[3.3]heptan-2-yl)carbamoyl)-4,5-dihydrothieno[2,3-c]pyridine-6(7H)-carboxylate] the value was 5.1 to 15 nM; for `CC(=O)N1CCc2c(C(=O)N[C@H]3CC4(C3)C[C@H](c3n[nH]c(=O)c5ccccc53)C4)csc2C1` (stereo partly drawn) [Example 274, 6-acetyl-N-((aR)-6-(4-oxo-3,4-dihydrophthalazin-1-yl)spiro[3.3]heptan-2-yl)-4,5,6,7-tetrahydrothieno[2,3-c]pyridine-3-carboxamide], 5.1 to 15 nM; for `COC(=O)N1CCc2c(C(=O)N[C@H]3CC4(C3)C[C@H](c3n[nH]c(=O)c5ccccc53)C4)csc2C1` (stereo partly drawn) [Example 275, methyl 3-(((aR)-6-(4-oxo-3,4-dihydrophthalazin-1-yl)spiro[3.3]heptan-2-yl)carbamoyl)-4,5-dihydrothieno[2,3-c]pyridine-6(7H)-carboxylate], 5.1 to 15 nM. In the case of `CS(=O)(=O)N1CCc2c(C(=O)N[C@H]3CC4(C3)C[C@H](c3n[nH]c(=O)c5ccccc53)C4)csc2C1` (stereo partly drawn) [Example 276, 6-(methylsulfonyl)-N-((aR)-6-(4-oxo-3,4-dihydrophthalazin-1-yl)spiro[3.3]heptan-2-yl)-4,5,6,7-tetrahydrothieno[2,3-c]pyridine-3-carboxamide], the IC50 fell in the range of 15.1 to 100 nM.

`Cn1cc(-c2ccc3c(C(=O)N[C@H]4CC5(C4)C[C@H](c4n[nH]c(=O)c6ccccc64)C5)onc3c2)cn1` (stereo partly drawn) [Example 277, 6-(1-methyl-1H-pyrazol-4-yl)-N-((aR)-6-(4-oxo-3,4-dihydrophthalazin-1-yl)spiro[3.3]heptan-2-yl)benzo[c]isoxazole-3-carboxamide]: the IC50 was in the range of 0.2 to 2 nM.

As for `CC(C)(O)Cn1nc(C(=O)NC2CC3(C2)CC(c2n[nH]c(=O)n4cccc24)C3)c2ccccc21` (stereo not shown) [Example 278, 1-(2-hydroxy-2-methylpropyl)-N-(6-(4-oxo-3,4-dihydropyrrolo[1,2-d][1,2,4]triazin-1-yl)spiro[3.3]heptan-2-yl)-1H-indazole-3-carboxamide, TFA], the IC50 lay in the range of 5.1 to 15 nM.
